The subject of experiment [1] is Mycosphaerella graminicola; Anamorph: Septoria tritici. The experiment in a line: Fungicidal activity: Leaf Blotch of Wheat (SEPTTR). It is filed as in vivo. The settings on record: Zymoseptoria tritici, wheat leaf blotch; for pest or weed control at 121.5 g/ha: Low Volume (121.5 g/H); for pest or weed control at 100 µg/mL: High Volume (100 ppm). Put shortly: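 Compounds were dissolved in acetone, diluted with nine volumes of water containing 110 ppm Triton X-100, and sprayed to run-off on first-leaf Yuma wheat seedlings inoculated with Septoria tritici spores before or after treatment. Plants were held in a dew chamber, then a 20° C. greenhouse. Percent control was derived from disease severity relative to untreated plants.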

Experiment [2] relates to Puccinia triticina. The experiment in a line: Fungicidal activity: Wheat Brown Rust (PUCCRT). The class given is in vivo. The settings on record: for pest or weed control at 121.5 g/ha: Low Volume (121.5 g/H); for pest or weed control at 100 µg/mL: High Volume (100 ppm). Put shortly: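 Percent control of brown rust was derived from 0-100% severity on treated versus untreated first leaves. Yuma wheat seedlings were spray-treated to run-off (acetone/water, Triton X-100) and inoculated with P. triticina spores before or after treatment, then held overnight in dark dew at 22° C and moved to a 24° C greenhouse.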

Setting [3] is: 24 h, 1 Day Protectant, read-out: SEPTTR 1 DP disease control.
Where [4] appears, read: 72 h, 3 Day Curative, read-out: SEPTTR 3 DC disease control.
The mark [5] stands for this setting: 24 h, 1 Day Protectant, read-out: PUCCRT 1 DP disease control.
Setting [6] is: 72 h, 3 Day Curative, read-out: PUCCRT 3 DC disease control.

Read-outs that look alike come from different tables or passages of the source.

Take `COc1ccnc(C(=O)N[C@H]2COC[C@H](Cc3ccc(Cl)cc3)[C@@H](CC(C)C)[C@H](C)OC2=O)c1OC(C)=O` [compound 75]: the pest or weed control at 121.5 g/ha was above 70% in experiment [1] (setting [3]), above 70% in experiment [1] (setting [4]), above 70% in experiment [2] (setting [5]) and below 70% in experiment [2] (setting [6]).
Consider `COc1ccnc(C(=O)N[C@H]2COC[C@H](CCCc3ccccc3)[C@@H](Cc3ccc(OC(F)(F)F)cc3)[C@H](C)OC2=O)c1OCOC(C)=O` [compound 76], for which the pest or weed control at 121.5 g/ha in experiment [1] (setting [3]) is above 70%; in experiment [1] (setting [4]), above 70%; in experiment [2] (setting [5]), above 70%; in experiment [2] (setting [6]), below 70%.
`CCOCC(=O)OCOc1c(OC)ccnc1C(=O)N[C@H]1COC[C@H](CCCc2ccccc2)[C@@H](Cc2ccc(OC(F)(F)F)cc2)[C@H](C)OC1=O` [compound 77]: the pest or weed control at 121.5 g/ha in experiment [1] (setting [3]), in experiment [1] (setting [4]), in experiment [2] (setting [5]) and in experiment [2] (setting [6]) was below 70% in each case.
`COc1ccnc(C(=O)N[C@H]2COC[C@H](Cc3ccc(C(F)(F)F)cc3)[C@@H](Cc3ccc(F)cc3)[C@H](C)OC2=O)c1OCOC(C)=O` [compound 78]: the pest or weed control at 121.5 g/ha in experiment [1] (setting [3]), in experiment [1] (setting [4]), in experiment [2] (setting [5]) and in experiment [2] (setting [6]) was below 70% each time.
As to `COc1ccnc(C(=O)N[C@H]2COC[C@H](Cc3ccc(C(F)(F)F)cc3)[C@@H](Cc3ccc(F)cc3)[C@H](C)OC2=O)c1OC(C)=O` [compound 79], the pest or weed control at 121.5 g/ha in experiment [1] (setting [3]) was above 70%; in experiment [1] (setting [4]) it was below 70%; in experiment [2] (setting [5]), above 70%; in experiment [2] (setting [6]), below 70%.
Take `COc1ccnc(C(=O)N[C@H]2COC[C@H](Cc3ccc(C(F)(F)F)cc3)[C@@H](Cc3ccc(F)cc3)[C@H](C)OC2=O)c1OCOC(=O)C(C)C` [compound 80]: the pest or weed control at 121.5 g/ha in experiment [1] (setting [3]) is below 70%; in experiment [1] (setting [4]), below 70%; in experiment [2] (setting [5]), above 70%; in experiment [2] (setting [6]), below 70%.
As for `COc1ccnc(C(=O)N[C@H]2COC[C@H](CCCc3ccccc3)[C@@H](Cc3ccc(OC(F)(F)F)cc3)[C@H](C)OC2=O)c1OC(C)=O` [compound 81], the pest or weed control at 121.5 g/ha in experiment [1] (setting [3]), in experiment [1] (setting [4]), in experiment [2] (setting [5]) and in experiment [2] (setting [6]) was below 70% each time.
With `COc1ccnc(C(=O)N[C@H]2COC[C@H](Cc3ccccc3)[C@@H](CCC(C)C)[C@H](C)OC2=O)c1OCOC(=O)C(C)C` [compound 82], the pest or weed control at 121.5 g/ha in experiment [1] (setting [3]), in experiment [1] (setting [4]), in experiment [2] (setting [5]) and in experiment [2] (setting [6]) was below 70% each time.
Turning to `CCOCC(=O)OCOc1c(OC)ccnc1C(=O)N[C@H]1COC[C@H](Cc2ccccc2)[C@@H](CCC(C)C)[C@H](C)OC1=O` [compound 83], the pest or weed control at 121.5 g/ha in experiment [1] (setting [3]), in experiment [1] (setting [4]), in experiment [2] (setting [5]) and in experiment [2] (setting [6]) was above 70% throughout.
As for `COc1ccnc(C(=O)N[C@H]2COC[C@H](Cc3ccccc3)[C@@H](CCC(C)C)[C@H](C)OC2=O)c1OC(C)=O` [compound 84], the pest or weed control at 121.5 g/ha in experiment [1] (setting [3]), in experiment [1] (setting [4]), in experiment [2] (setting [5]) and in experiment [2] (setting [6]) was above 70% throughout.
`COc1ccnc(C(=O)N[C@H]2COC[C@H](Cc3ccccc3)[C@@H](CCC(C)C)[C@H](C)OC2=O)c1OCOC(C)=O` [compound 85]: the pest or weed control at 121.5 g/ha in experiment [1] (setting [3]), in experiment [1] (setting [4]), in experiment [2] (setting [5]) and in experiment [2] (setting [6]) was above 70% in each case.
As for `COc1ccnc(C(=O)N[C@H]2COC[C@H](CCC(C)C)[C@@H](C3CCCC3)[C@H](C)OC2=O)c1OCOC(=O)C(C)C` [compound 94, ((2-(((3S,7R,8R,9S)-8-cyclopentyl-7-isopentyl-9-methyl-2-oxo-1,5-dioxonan-3-yl)carbamoyl)-4-methoxypyridin-3-yl)oxy)methyl isobutyrate], the pest or weed control at 121.5 g/ha in experiment [1] (setting [3]) was above 70%; in experiment [1] (setting [4]) it was above 70%; in experiment [2] (setting [5]), above 70%; in experiment [2] (setting [6]), below 70%.
In the case of `CCC[C@H]1COC[C@H](NC(=O)c2nccc(OC)c2OCOC(C)=O)C(=O)O[C@@H](C)[C@@H]1c1ccccc1` [compound 97], the pest or weed control at 121.5 g/ha in experiment [1] (setting [3]), in experiment [1] (setting [4]), in experiment [2] (setting [5]) and in experiment [2] (setting [6]) was above 70% in each case.
For the molecule `CCC[C@H]1COC[C@H](NC(=O)c2nccc(OC)c2OC(C)=O)C(=O)O[C@@H](C)[C@@H]1c1ccccc1` [compound 98], the pest or weed control at 121.5 g/ha in experiment [1] (setting [3]), in experiment [1] (setting [4]), in experiment [2] (setting [5]) and in experiment [2] (setting [6]) was above 70% each time.
`CCC[C@H]1COC[C@H](NC(=O)c2nccc(OC)c2OCOC(=O)C(C)C)C(=O)O[C@@H](C)[C@@H]1c1ccccc1` [compound 99]: the pest or weed control at 121.5 g/ha in experiment [1] (setting [3]), in experiment [1] (setting [4]), in experiment [2] (setting [5]) and in experiment [2] (setting [6]) was above 70% each time.
For the molecule `COc1ccnc(C(=O)N[C@H]2COC[C@H](CC3CC3)[C@@H](c3ccccc3)[C@H](C)OC2=O)c1OCOC(C)=O` [compound 101], the pest or weed control at 121.5 g/ha in experiment [1] (setting [3]), in experiment [1] (setting [4]), in experiment [2] (setting [5]) and in experiment [2] (setting [6]) was above 70% throughout.
Regarding `COc1ccnc(C(=O)N[C@H]2COC[C@H](CC3CC3)[C@@H](c3ccccc3)[C@H](C)OC2=O)c1OCOC(=O)C(C)C` [compound 102], the pest or weed control at 121.5 g/ha in experiment [1] (setting [3]), in experiment [1] (setting [4]), in experiment [2] (setting [5]) and in experiment [2] (setting [6]) was above 70% in each case.
In the case of `CCOCC(=O)OCOc1c(OC)ccnc1C(=O)N[C@H]1COC[C@H](CC2CC2)[C@@H](c2ccccc2)[C@H](C)OC1=O` [compound 103], the pest or weed control at 121.5 g/ha in experiment [1] (setting [3]), in experiment [1] (setting [4]), in experiment [2] (setting [5]) and in experiment [2] (setting [6]) was above 70% in each case.
With `COc1ccnc(C(=O)N[C@H]2COC[C@H](CC3CC3)[C@@H](Cc3ccc(F)cc3)[C@H](C)OC2=O)c1OCOC(C)=O` [compound 104], the pest or weed control at 121.5 g/ha in experiment [1] (setting [3]), in experiment [1] (setting [4]), in experiment [2] (setting [5]) and in experiment [2] (setting [6]) was above 70% in each case.
For the molecule `CCCC[C@@H]1[C@@H](Cc2ccccc2)COC[C@H](NC(=O)c2nccc(OC)c2O)C(=O)O[C@H]1C` [compound 110], the pest or weed control at 100 µg/mL in experiment [1] (setting [3]) was above 70%; in experiment [1] (setting [4]), above 70%; in experiment [2] (setting [5]), below 70%; in experiment [2] (setting [6]) it was below 70%.
Take `COc1ccnc(C(=O)N[C@H]2COC[C@@H]3CCCC[C@H]3[C@@H](C)OC2=O)c1O` [compound 114]: the pest or weed control at 100 µg/mL is above 70% in experiment [1] (setting [3]), below 70% in experiment [1] (setting [4]), above 70% in experiment [2] (setting [5]) and above 70% in experiment [2] (setting [6]).
Turning to `COc1ccnc(C(=O)N[C@H]2COC[C@H](CCC(C)C)[C@@H](CCC(C)C)[C@H](C)OC2=O)c1O` [compound 117], the pest or weed control at 100 µg/mL in experiment [1] (setting [3]) was above 70%; in experiment [1] (setting [4]), below 70%; in experiment [2] (setting [5]) it was above 70%; in experiment [2] (setting [6]), above 70%.
`C=C(C)COC[C@@H]1[C@@H](Cc2ccccc2)COC[C@H](NC(=O)c2nccc(OC)c2O)C(=O)O[C@H]1C` [compound 120]: the pest or weed control at 100 µg/mL in experiment [1] (setting [3]), in experiment [1] (setting [4]), in experiment [2] (setting [5]) and in experiment [2] (setting [6]) was below 70% in each case.
For `COc1ccnc(C(=O)N[C@H]2COC[C@H](Cc3ccccc3)[C@@H](COCC(C)C)[C@H](C)OC2=O)c1O` [compound 121], the pest or weed control at 100 µg/mL in experiment [1] (setting [3]) is below 70%; in experiment [1] (setting [4]), above 70%; in experiment [2] (setting [5]), below 70%; in experiment [2] (setting [6]) it was below 70%.
For the molecule `COc1ccnc(C(=O)N[C@@H]2COC[C@@H](Cc3ccccc3)[C@H](COCC(C)C)[C@@H](C)OC2=O)c1O` [compound 122], the pest or weed control at 100 µg/mL in experiment [1] (setting [3]), in experiment [1] (setting [4]), in experiment [2] (setting [5]) and in experiment [2] (setting [6]) was below 70% each time.
On to `CCCC[C@@H]1[C@@H](Cc2ccc(C(F)(F)F)cc2)COC[C@H](NC(=O)c2nccc(OC)c2O)C(=O)O[C@H]1C` [compound 123], for which the pest or weed control at 100 µg/mL in experiment [1] (setting [3]), in experiment [1] (setting [4]), in experiment [2] (setting [5]) and in experiment [2] (setting [6]) was below 70% each time.

Values taken from patent US9955691B2, “Macrocyclic picolinamides as fungicides” (DOW AGROSCIENCES LLC, priority 2014, dated 2018).
